Measurements reported in publication PMC10051477, “5,8-Dimethyl-9H-carbazole Derivatives Blocking hTopo I Activity and Actin Dynamics” (Pharmaceuticals, 2023).

How the values were obtained:
MCF-7 cells = assay: MTT assay, MCF-7 cell viability; assay type: cell-based; conditions: Homo sapiens, MCF7, 72 h, mean ± standard deviation
Procedure: (§1) MTT assays (Sigma Aldrich (St.Louis, MO, USA)) were employed to evaluate the in vitro anticancer activities of all the studied compounds, as previously described. The compounds were tested at different concentrations (0.1-1-10-25-50-100 μM) for 72 h. The IC50 values were calculated from the percent (%) of control using GraphPad Prism 9 (GraphPad Software, La Jolla, CA, USA).

[1] = test system: actin system in MDA-MB-231 cells; assay: Actin immunofluorescence in MDA-MB-231 cells; assay type: cell-based, human; conditions: MDA-MB-231, 24 h; compounds at their IC50 values, LA 0.1 µM
Procedure: In order to determine whether the lead compounds 3 and 4 may effectively regulate the actin system, we employed both the immunofluorescence and in vitro direct enzymatic assays. […] As negative and positive controls, we used the only vehicle (DMSO) and latrunculin A (LA) at a concentration of 0.1 µM, respectively. After processing, the cells were observed under a fluorescent microscope, (see experimental section for the details). […] Moreover, the latter looked brighter and stocked in the cytoplasm in dot-like structures or thicker fibers. Again, the MDA-MB-231 cells, under exposure to compounds 3 and 4, lost their shape (Figure 4, compounds 3 and 4, panels B), as we observed under LA treatment, and with a very similar arrangement of the actin network.
The cells were plated and further processed, as previously indicated. Specifically, the rabbit anti-β-Actin (Santa Cruz Biotechnology, Dallas, TX, USA), diluted 1:100 in bovine serum albumin (BSA) 2%, was used as primary antibody and incubated overnight at 4 °C. The secondary antibody, Alexa Fluor® 488 conjugate goat-anti-rabbit, was diluted 1:500 and incubated for 2 h at 37 °C. DAPI (4′,6-diamidino-2-phenylindole, Sigma Aldrich, Milan, Italy) 0.2 μg/mL was used for nuclei staining. A fluorescence microscope (Leica DM 6000) was utilized for fluorescence detection (40× magnification). LAS-X software allowed acquiring and processing all the fluorescence images, which are representative of three separate experiments.

MCF-10A cells = assay: MTT assay, MCF-10A normal cell viability; assay type: cell-based, human; conditions: 72 h, non-malignant breast epithelial cells, mean ± standard deviation
Procedure: The inhibition of cancer cell growth exerted by the five considered compounds (1–5) has been evaluated in vitro against two models of breast cancer, namely the estrogen receptor positive (ER+) MCF-7 and the triple negative MDA-MB-231 human breast cancer cells (lacking ER, PR, and HER-2/Neu amplification), together with the normal counterpart, namely the non-malignant breast epithelial cells MCF-10A. […] Moreover, no effects were recorded against the MCF-7 cells, at least until the concentration of 100 μM. […] Thus, the two lead compounds were chosen for subsequent studies aiming at individuating the molecular mechanisms underlying the observed anticancer activity.
as §1

[2] = target: T1, labeled rabbit muscle actin (Oryctolagus cuniculus, UniProt P68135); assay: In vitro actin polymerization assay; assay type: biochemical; conditions: 5 µM, 1 h, room temperature; vehicle plateau about 25,000 RFU
T1 construct: fluorescent label (chemical); purchased Abcam; host or cells: rabbit muscle
Source text: With the aim to confirm the immunofluorescence results and substantiate whether compounds 3 and 4 could inhibit the actin polymerization mechanism and/or boost the F-actin depolymerization, we employed a fluorescent-labeled purified rabbit actin. LA and cytochalasin B (CB) were used as positive controls for both the polymerization inhibition and F-actin subunits dissociation, or only the polymerization inhibition, respectively. In the negative control reaction (only vehicle), actin monomers undergo a normal polymerization, as visible in Figure 5, panel A. The reaction curve rises in approximately 5 min to a value of about 25,000 RFU (plateau) which remains almost unvaried until the end of the experiment. Contrariwise, the two reference molecules, i.e., LA and CB, used at the concentration of 5 µM, braked the actin polymerization, mostly LA rather than CB, under the adopted experimental conditions, and the LA curve dropped until a value of about 8000 RFU at the reaction end.
(§2) An Actin Polymerization/Depolymerization Assay Kit, purchased from Abcam, was employed to assess the ability of compounds 3 and 4 to interfere with the actin polymerization and depolymerization processes. To perform the essays, the manufacturer’s instructions were followed with some modifications. In particular, polymerization assay was carried out incubating in a white 96-well plate the reconstituted actin with supplemented Buffer G, compounds 3 and 4 and then Buffer P was added in order to induce actin polymerization. For the Actin Depolymerization Assay, the actin polymerization was first induced, incubating supplemented Buffers P and G at room temperature for one hour. Then, compounds 3 and 4 were added at a concentration of 5 μM. Latrunculin A (LA) and Cytochalasin B (CB) were utilized as positive control at a concentration of 5 μM. For both the assays, the assemblage of the actin filaments was defined by measuring the fluorescence (Ex/Em: 365/410 nm) in kinetic mode for 1 h at room temperature in a microplate reader.

[3] = target: T2, F-actin (labeled rabbit muscle actin) (Oryctolagus cuniculus, UniProt P68135); assay: In vitro F-actin depolymerization assay; assay type: biochemical; conditions: 5 µM added after 1 h polymerization, monitored 1 h; vehicle 20,000 RFU
T2 construct: fluorescent label (chemical); purchased Abcam; host or cells: rabbit muscle
Procedure: Moreover, we performed the F-actin depolymerization assay to verify whether compounds 3 and 4 could induce the actin depolymerization as well as the LA does (Figure 5, panel B). For this purpose, we started the actin polymerization for one hour under the same experimental conditions used previously. Then, we added the compounds or the reference molecules at the concentration of 5 µM and monitored the reactions for an additional hour. […] The addition of CB was not able to produce the same effect of LA. […] Contrarily, both the compounds were able to induce an important depolymerizing effect on the F-actin, most evident in the first 7 min after the exposure. Particularly, compounds 3 and 4 produced final values of approximately 14,000 and 12,000 RFU, respectively. […] This combined effect leads to a disorganization of the intracellular actin network.
as §2

Structure (SMILES) | IC50 (MCF-7 cells) [µM] | Effect on actin organization (immunofluorescence) [1] | IC50 (MCF-10A cells) [µM] | IC50 (MCF-10A cells; Homo sapiens, MCF-10A) [µM] | Actin polymerization, final fluorescence value of reaction curve [2] | F-actin depolymerization, final fluorescence value of reaction curve [3]
Cc1ccc(C)c2c1c1cc(B(O)O)ccc1n2C(=O)OC(C)(C)C [Compound 3] | 27.6 ± 0.71 | interfere with the normal actin organization | 51.9 ± 0.88 | ~52 | about 13,000 RFU | approximately 14,000 RFU
Cc1ccc(C)c2c1c1cc(O)ccc1n2C(=O)OC(C)(C)C [Compound 4] | 19.8 ± 1.12 | interfere with the normal actin organization |  | > 100 | around 16,000 RFU | ~12,000 RFU
